The values that follow come from patent US6977254B2, “Hydroxy cyclohexenyl phenyl carboxamides tocolytic oxytocin receptor antagonists” (Wyeth, priority 2001, dated 2005).

What is called inhibition is the relative decrease from the control value, in per cent. As a reminder, the IC50 is the concentration needed to halve the response being measured.

For the first experiment, the target named is T1, human V2 vasopressin receptor subtype (Homo sapiens, UniProt P30518).
T1 construct: host or cells: CHO cells, stably transfected (pZeoSV vector); membranes
T1 sequence (P30518 whole entry): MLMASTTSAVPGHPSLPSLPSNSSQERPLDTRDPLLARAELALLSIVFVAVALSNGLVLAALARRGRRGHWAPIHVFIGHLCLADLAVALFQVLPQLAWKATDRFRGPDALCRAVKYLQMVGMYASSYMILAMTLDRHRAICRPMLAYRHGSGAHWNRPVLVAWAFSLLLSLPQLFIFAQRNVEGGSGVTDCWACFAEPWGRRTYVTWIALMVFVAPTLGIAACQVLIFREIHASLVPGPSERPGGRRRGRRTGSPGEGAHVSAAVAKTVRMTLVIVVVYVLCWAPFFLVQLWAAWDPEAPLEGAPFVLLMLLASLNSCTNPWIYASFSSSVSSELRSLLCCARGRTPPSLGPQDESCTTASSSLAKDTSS
Put plainly: Vasopressin binding in CHO cell membranes expressing human vasopressin V2 subtype receptors ([3H]arginine vasopressin). Conditions: 100 nM, value without parentheses. The source says: Vasopressin Binding in Chinese Hamster Ovary Cell Membranes Expressing Human Vasopressin V2 Subtype Receptors
Chinese Hamster Ovary (CHO) cells stably transfected with the human V2 subtype receptors were obtained from M. Thibonnier, Case Western Reserve University School of Medicine, Cleveland, Ohio.
A. Passaging and Amplification of Cells:
CHO cells transfected with the human vasopressin V2 subtype receptors obtained from M. Thibonnier (pZeoSV vector) are allowed to grow to confluency (approx. >90%) in T-150 flasks under sterile conditions, in a cell culture medium of F-12 Nutrient Mixture (HAM) with L-glutamine (Gibco Cat. #11765-054) containing 15 mM HEPES (Gibco Cat. #15630-080), 1% antibiotic/antimycotic (add 5 mL 100×, Gibco Cat. #15240-062 per 500 mL F-12), 250 μg/mL Zeocin (add 1.25 mL of 100 mg/mL Invitrogen R-250-01 per 500 mL F-12) and 10% Fetal Bovine Serum (Qualified, heat inactivated, Gibco Cat. #16140-063). The medium is removed by aspiration and the cells washed with 10 mL of Hank's Balanced Salt solution (Gibco Cat. #14175-095). The salt solution is removed by aspiration and the cells trypsinized with 5 mL of trypsin-EDTA (0.05% trypsin, 0.53 mM EDTA-4Na, Gibco Cat. #25300-070) for 1 min. The trypsin is removed by aspiration and the cells dislodged by tapping. Cell Culture medium (e.g. 30 mL for 1:30 split) is immediately added and mixed well to inactivate trypsin. 1 mL of detached cells is added to new culture flasks containing fresh Cell Culture medium (e.g. into 25 mL per T-150 flask), and mixed gently. The cells are incubated at 37° C. in 5% CO2. The medium is changed at 3 to 4 day interval (or as appropriate). The cells grow to confluency (approx. >75%-95%) within 7-8 days. All steps are done under sterile conditions.
The cells are washed twice gently with Hank's Balanced Salt solution (e.g. use 10 mL per T-150 flask). The excess solution is removed and the cells bathed for 15-30 min. in an enzyme-free Cell Dissociation Buffer (e.g. use 8 mL Hank's Based, Gibco Cat. #13150-016 per T-150 flask) until cells are loosened. The contents are transferred to centrifuge tubes (50 mL size) kept in ice bath. All subsequent steps are done at 4° C. The tubes are centrifuged at 300×g for 15 min (1380 rpm on SORVAL, Model RT6000D, using rotor for 50 mL tubes). The supernatant is discarded and the cells suspended in homogeneizing buffer(10 mM Tris-HCl containing 0.25 M sucrose and 1 mM EDTA, pH 7.4) ensuring that the volume of the buffer is about ten times the volume of the cell pellet. The cells are pooled into a centrifuge tube (50 mL) and homogenized with Polytron at setting 6 for 10 sec. The homogenate is transferred into a Potter-Elvjehm homogeneizer and homogenized with 3 strokes. The homogenate is centrifuged at 1500×g for 60 min at 4° C. (3100 rpm using SORVAL, model RT6000D, using rotor for 50 mL tubes). The pellet is discarded. The supernatant is centrifuged at 100,000×g for 60 min. at 4° C. (Beckman L8-80M ultracentrifuge; spin at 37,500 rpm with rotor type 70 Ti for 50 mL tubes; 38,000 rpm with type 80Ti for 15 mL tubes; or 35,800 rpm with rotor type 45Ti). The supernantant is discarded and the pellet suspended in 3 to 4 mL of Tris buffer (50 mM TRIS-HCl, pH 7.4). The protein content is estimated by the Bradford or Lowry method. The volume of the membrane suspension is adjusted with the membrane buffer (50 mM Tris-HCl containing 0.1% BSA and 0.1 mM PMSF) to give 3.0 mg/mL (or as appropriate) of protein. The membranes are aliquoted and stored at −70° C.
C. Radioligand Binding Assay:
In wells of a 96-well format microtiter plate, is added 90, 110 or 130 μL (to make up a final volume of 200 μL) of assay buffer containing 50 mM of Tris-HCl (pH 7.4), […], 1 mg % aprotinin, 1 mg % leupeptin, 2 mg % 1,10-phenanthroline, 10 mg % trypsin inhibitor, and 0.1 mM PMSF. The inhibitors are added on the day of the experiment. […]
`COC(=O)[C@H](CO)NC(=O)c1ccc2n1Cc1ccccc1N(C(=O)c1ccc(C3=CCCCC3)c(C)c1)C2` [Example 11, (2S)-2-{[10-(4-Cyclohex-1-en-1-yl-3-methyl-benzoyl)-10,11-dihydro-5H-pyrrolo[2,1-c][1,4]benzodiazepine-3-carbonyl]-amino}-3-hydroxy-propionic acid methyl ester]: the inhibition at 0.1 µM came to 10%.
As to `COc1cc(C2=CCCCC2)c(Cl)cc1C(=O)N1Cc2ccc(C(=O)O)n2Cc2ccccc21` [Example 1G, 10-(5-Chloro-4-cyclohex-1-en-1-yl-2-methoxybenzoyl)-10,11-dihydro-5H-pyrrolo[2,1-c][1,4]benzodiazepine-3-carboxylic acid], the inhibition at 0.1 µM amounted to 4%.
Regarding `Cc1cc(C(=O)N2Cc3ccc(C(=O)N4CCN(CCO)CC4)n3Cc3ccccc32)ccc1C1=CCCCC1` [Example 17, {10-[4-(1-Cyclohex-1-en-1-yl)-3-methylbenzoyl]-10,11-dihydro-5H-pyrrolo[2,1-c][1,4]benzodiazepin-3-yl}[4-(2-hydroxyethyl)-1-piperazinyl]methanone], the “V2 % inhibition @ 100 nM” value is 7%.
The same measure, in the same setting: the result for `Cc1cc(C(=O)N2Cc3ccc(C(=O)N(CCO)CCO)n3Cc3ccccc32)ccc1C1=CCCc2ccccc21` [Example 16, {10-[4-(3,4-Dihydro-naphthalen-1-yl)-3-methyl-benzoyl]-10,11-dihydro-5H-pyrrolo[2,1-c][1,4]benzodiazepin-3-yl}-3-carboxylic acid bis-(2-hydroxy-ethyl)-amide] reads 46%; that for `Cc1cc(C(=O)N2Cc3ccc(C(=O)C(Cl)(Cl)Cl)n3Cc3ccccc32)ccc1C1=CCCCC1` [Example 5D, 2,2,2-Trichloro-1-[10-(4-cyclohex-1-en-1-yl-3-methyl-benzoyl)-10,11-dihydro-5H-pyrrolo[2,1-c][1,4]benzodiazepin-3-yl]-methanone], 1%.
With `Cc1cc(C(=O)N2Cc3ccc(C(=O)N(C)C[C@@H]4OC(=O)O[C@H]4[C@H](O)[C@H]4COC(=O)O4)n3Cc3ccccc32)ccc1C1=CCCCC1` [Example 7, 10-(4-Cyclohex-1-en-1-yl-3-methylbenzoyl)-N-[((4S,5S)-5-{(R)-hydroxy[(4R)-2-oxo-1,3-dioxolan-4-yl]methyl}-2-oxo-1,3-dioxolan-4-yl)methyl]-N-methyl-10,11-dihydro-5H-pyrrolo[2,1-c][1,4]benzodiazepine-3-carboxamide], the inhibition at 0.1 µM was determined as 14%.
On the same count and under the same terms, the result for `Cc1cc(C(=O)N2Cc3ccc(C(=O)O)n3Cc3ccccc32)ccc1C1=CCCc2ccccc21` [Example 15B, 10-[4-(3,4-Dihydro-naphthalen-1-yl)-3-methyl-benzoyl]-10,11-dihydro-5H-pyrrolo[2,1-c][1,4]benzodiazepine-3-carboxylic acid] reads 40%; that for `CCOC(=O)[C@H](Cc1ccc(O)cc1)NC(=O)c1ccc2n1Cc1ccccc1N(C(=O)c1ccc(C3=CCCCC3)c(C)c1)C2` [Example 9, (2S)-2-{[10-(4-Cyclohex-1-en-1-yl-3-methyl-benzoyl)-10,11-dihydro-5H-pyrrolo[2,1-c][1,4]benzodiazepine-3-carbonyl]-amino}-3-(4-hydroxy-phenyl)-propionic acid ethyl ester], 11%.
On to `Cc1cc(C(=O)N2Cc3ccc(C(=O)N[C@H](CO)C(=O)O)n3Cc3ccccc32)ccc1C1=CCCCC1` [Example 14, (2R)-2-{[10-(4-Cyclohex-1-en-1-yl-3-methyl-benzoyl)-10,11-dihydro-5H-pyrrolo[2,1-c][1,4]benzodiazepine-3-carbonyl]-amino}-3-hydroxy-propionic acid], for which the inhibition at 0.1 µM turned out to be 11%.
The same measure, in the same setting: then `Cc1cc(C(=O)N2Cc3ccc(C(=O)O)n3Cc3ccccc32)ccc1C1=CCCCC1` [Example 5E, 10-(4-Cyclohex-1-en-1-yl-3-methyl-benzoyl)-10,11-dihydro-5H-pyrrolo[2,1-c][1,4]benzodiazepine-3-carboxylic acid], with 15%; and `Cc1cc(C(=O)N2Cc3ccc(C(=O)N[C@@H](CO)C(=O)O)n3Cc3ccccc32)ccc1C1=CCCCC1` [Example 13, (2S)-2-{[10-(4-Cyclohex-1-en-1-yl-3-methyl-benzoyl)-10,11-dihydro-5H-pyrrolo[2,1-c][1,4]benzodiazepine-3-carbonyl]-amino}-3-hydroxy-propionic acid], with 9%; and `COC(=O)[C@@H](CO)NC(=O)c1ccc2n1Cc1ccccc1N(C(=O)c1ccc(C3=CCCCC3)c(C)c1)C2` [Example 12, (2R)-2-{[10-(4-Cyclohex-1-en-1-yl-3-methyl-benzoyl)-10,11-dihydro-5H-pyrrolo[2,1-c][1,4]benzodiazepine-3-carbonyl]-amino}-3-hydroxy-propionic acid methyl ester], with 9%.

The same experiment, now with this note: value in parentheses.
In the case of `COc1cc(C2=CCCCC2)c(Cl)cc1C(=O)N1Cc2ccc(C(=O)N(C)C[C@@H]3OC(=O)O[C@H]3[C@H](O)[C@H]3COC(=O)O3)n2Cc2ccccc21` [Example 3, 10-(5-Chloro-4-cyclohex-1-en-1-yl-2-methoxybenzoyl)-N-[((4S,5S)-5-{(R)-hydroxy[(4R)-2-oxo-1,3-dioxolan-4-yl]methyl}-2-oxo-1,3-dioxolan-4-yl)methyl]-N-methyl-10,11-dihydro-5H-pyrrolo[2,1-c][1,4]benzodiazepine-3-carboxamide], the IC50 was 2.62 µM.
`Cc1cc(C(=O)N2Cc3ccc(C(=O)N(C)C[C@H](O)[C@@H](O)[C@H](O)[C@H](O)CO)n3Cc3ccccc32)ccc1C1=CCCCC1` [Example 5]: the IC50 is 2.11 µM.
The same measure, in the same setting: the result for `Cc1cc(C(=O)N2Cc3ccc(C(=O)N(C)C[C@H](O)[C@@H](O)[C@H](O)[C@H](O)CO)n3Cc3ccccc32)ccc1C1=CCCc2ccccc21` [Example 15] reads 0.121 µM; that for `COc1cc(C2=CCCCC2)c(Cl)cc1C(=O)N1Cc2ccc(C(=O)N(C)CC(O)CO)n2Cc2ccccc21` (stereo not drawn) [Example 4, 10-(5-Chloro-4-cyclohex-1-en-1-yl-2-methoxybenzoyl)-N-(2,3-dihydroxypropyl)-N-methyl-10,11-dihydro-5H-pyrrolo[2,1-c][1,4]benzodiazepine-3-carboxamide], 1.49 µM; that for `COC[C@@H](OC)[C@@H](OC)[C@H](OC)[C@H](CN(C)C(=O)c1ccc2n1Cc1ccccc1N(C(=O)c1cc(Cl)c(C3=CCCCC3)cc1OC)C2)OC` [Example 2, 10-(5-Chloro-4-cyclohex-1-en-1-yl-2-methoxybenzoyl)-N-methyl-N-[(2S,3R,4R,5R)-2,3,4,5,6-pentamethoxyhexyl]-10,11-dihydro-5H-pyrrolo[2,1-c][1,4]benzodiazepine-3-carboxamide], 4.59 µM.
On the same count and under the same terms, the result for `Cc1cc(C(=O)N2Cc3ccc(C(=O)N(C)C[C@H](O)[C@H]4OC(=O)O[C@@H]4[C@H](O)CO)n3Cc3ccccc32)ccc1C1=CCCCC1` [Example 6, 10-(4-Cyclohex-1-en-1-yl-3-methylbenzoyl)-N-((2S)-2-{(4R,5R)-5-[(1R)-1,2-dihydroxyethyl]-2-oxo-1,3-dioxolan-4-yl}-2-hydroxyethyl)-N-methyl-10,11-dihydro-5H-pyrrolo[2,1-c][1,4]benzodiazepine-3-carboxamide] reads 0.558 µM.
